# Reference: patent US20070225278A1, “Methods for treating cognitive and other disorders” (priority 2006, published 2007)
# How the values were obtained:
# male Sprague-Dawley rats [1] = type: in vivo, rat; settings: minimal dose at which sexual dysfunction occurs, male rats
# Source text: In summary, male rats were allowed access to sexually receptive females during a single overnight mating session and then administered antidepressants with varying degrees of clinically reported sexual deficits. […] Animals
# Intact male Sprague-Dawley rats (Charles River Laboratories) arrived at 7 weeks of age and were allowed to habituate for one week prior to sexual experience or behavioral testing. Rats were group housed in same-sex colony rooms with food and water provided ad libitum. All animals were maintained under a 12:12 light-dark cycle (lights on at 6:00 am) with behavioral experiments performed during the light hours beginning at noon.
# Ovariectomized female Long-Evans rats (Charles River Laboratories) were individually housed and brought into behavioral estrus weekly by subcutaneous injection of 25 ug 17-B estradiol benzoate in 0.1 ml corn oil 48 hours prior to testing, followed by subcutaneous administration of 2.5 mg progesterone in 0.1 ml corn oil 4 to 6 hours before testing.
# For subjects assigned into the sexually experienced group, the following procedures were performed. Individual male rats were placed into the home cage of a a sexually receptive female for overnight mating sessions. The cage was a Plexiglas cage measuring 10×12 inches, with food and water ad libitum. Mating pairs were randomly assigned. […] Following overnight mating sessions, males and females were separated from each other and placed back into same-sex colony rooms where they were group-housed until the time of behavioral testing.
# To determine the effects of female stimuli on non-contact penile erections, sexually receptive females were brought into the testing room 30 minutes prior to the start of behavioral testing in order to provide female visual, olfactory, and auditory stimuli for males. The testing arena for observing non-contact penile erections in male rats consisted of an empty rat size Plexiglas cage (11×10 inches) containing no bedding, with an aerated plastic lid and a total ceiling height of 12 inches. […] A penile erection consisted of observation of the male rat in a hunched position grasping the penis with the forepaws and followed by a series of pelvic thrusts. The number of penile erections were quantified over a 30 minute observation session.
# Following sexual experience (as described above), male subjects (n=8 per group) were administered either 10 mg/kg/day fluoxetine or saline vehicle for 14 days. On the 14th day, fluoxetine treatment was co-administered with either saline or apomorphine (0.1-0.3 mg/kg, sc) or yohimbine (0.1-0.3 mg/kg, sc) or sildenafil (0.1-0.3 mg/kg, sc) in separate experiments. Non-contact penile erections were evaluated in 30 minute test sessions in the presence of sexually receptive female rats.
# Fluoxetine HCl (Tocris), desipramine (Sigma, St. Louis, Mo.) and bupropion HCl (Toronto Research Chemicals, Canada) were dissolved in 0.9% sterile saline vehicle and injected intraperitoneally (i.p.) once daily. On the day of behavioral testing, antidepressants were administered intraperitoneally (i.p.) as one hour pretreatments. For reversal experiments, apomorphine (Sigma, St. Louis, Mo.), yohimbine (Sigma, St. Louis, Mo.) or sildenafil (Toronto Research Chemicals, Canada) were used. Apomorphine was dissolved in 0.9% sterile saline vehicle and injected subcutaneously (s.c.). Yohimbine was dissolved in dH2O facilitated with 1N HCl, followed by addition of 1N NaOH for titration (pH=7) and administered intraperitoneally (i.p.). Sildenafil was dissolved in 0.9% sterile saline vehicle and administered intraperitoneally (i.p.). With the exception of fluoxetine which was administered in a dose volume of 2 ml/kg, all other test compounds were administered in a dose volume of 1 ml/kg. On the day of behavioral testing, both fluoxetine and the reversal agent (apomorphine, yohimbine, or sildenafil) were co-administered as 0 minute pretreatments. […]
# male Sprague-Dawley rats [2] = experiment: Schedule-induced polydipsia (SIP) in rats; type: in vivo, rat
# Source text: SIP is a model of obsessive-compulsive disorder. In this model, a food pellet is delivered once per minute for a two-hour period. A water bottle is available in the chamber. […] This excessive manifestation of a normal behavior (drinking) provides face validity to the model. […] Most importantly, clinically effective drugs for the treatment of obsessive-compulsive disorder decrease adjunctive drinking.
# Animals: Male Sprague-Dawley rats weighing 275-325 g were individually housed in wire hanging cages. Each cage was equipped with a water spigot attached to an automated watering system which allow free access to water at all times.
# Methods Rats were placed in an operant chamber (Med Associates) equipped with a pellet dispenser, a food receptacle, a houselight and a water bottle with 100 ml of water. Houselights were turned on in the chamber and a food pellet (Bioserve, 45 mg) was delivered on a fixed-time 60 sec schedule, such that one pellet was delivered each minute during a 2 hour experimental session. At the end of the session, water intake was measured.
# Experiments to control for schedule and baseline water intake were conducted by placing 120 pellets in the food receptacle at the start of a 2-hour experimental session. Houselights were turned on, but no additional food pellets were delivered. At the end of the session, water intake was measured.
# Dose calculations were based on active moiety.
# Evaluation of Results Data were analyzed using a one-way ANOVA. Post hoc tests comparing vehicle to doses of Compound 1 were conducted using contrasts in a least squares model. An ED50 value (dose decreasing polydipsic intake to 50% of vehicle values) was calculated using nonlinear regression models.
# [3] = tested on: male Sprague Dawley CD rats; experiment: Reversal of MK-801 induced deficits in PPI; settings: 3-30 mg/kg IP, MK-801 0.15 mg/kg SC
smiles,measurement,setting,value
c1cc2c3c(c1)[C@H]1CCC[C@H]1N3CCNC2 [Compound 1],Sexual dysfunction (MED mg/kg),male Sprague-Dawley rats [1],≧10 mg/kg
same,change in excessive water intake,"male Sprague-Dawley rats [2]; 3 mg/kg ip, p=0.0003",−43%
same,change in excessive water intake,"male Sprague-Dawley rats [2]; 10 mg/kg ip, p<0.0001",−87%
same,ED50,"male Sprague-Dawley rats [2]; Rattus norvegicus, ip, read-out: ED50 (dose decreasing polydipsic intake to 50% of vehicle values)",3.16 mg/kg
same,rats that did not eat all of their food pellets during the 2-hour session,male Sprague-Dawley rats [2]; highest dose (10 mg/kg ip),3 of 10
same,MED for decrease in adjunctive drinking,"male Sprague-Dawley rats [2]; ip, acute, 2 hour session",3 mg/kg
same,reduction of the increase in startle produced by MK-801,[3]; all doses tested,did significantly reduce
same,attenuation of MK-801 induced disruption in gating (PPI),[3]; any dose tested,did not show an ability to significantly attenuate
